Measured values published in ChEMBL document CHEMBL1201862, “PubChem BioAssay data set” (2004).
“And” between values parts separate entries of the source, which are not always exact repeats. Equal values may be shown once.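 How tested: cells in 96-well plates exposed to compound for 48 hours at five concentrations. GI50 marks 50% less growth.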 The source made the active and inactive calls. Rule as the data show it: active = GI50 up to about 1.1 µM and inactive = higher.

Assays:
Test in all cases: DTP human tumour cell line panel, 48 h
[1] = tested on: U-251
[2] = tested on: 786-0
[3] = tested on: CAKI-1
[4] = tested on: UACC-62
[5] = tested on: NCI-H226
[6] = tested on: Hs-578T
[7] = tested on: MDA-MB-231
[8] = tested on: A549
[9] = tested on: UO-31
[10] = tested on: COLO 205
[11] = tested on: CCRF-CEM
[12] = tested on: SN12C
[13] = tested on: HOP-62
[14] = tested on: SNB-19
[15] = tested on: HCC 2998
[16] = tested on: SK-MEL-5
[17] = tested on: SK-MEL-2
[18] = tested on: TK-10
[19] = tested on: Malme-3M
[20] = tested on: A498
[21] = tested on: MCF7
[22] = tested on: SW-620
[23] = tested on: RXF 393
[24] = tested on: IGROV-1
[25] = tested on: MOLT-4
[26] = tested on: MDA-N
[27] = tested on: RPMI-8226
[28] = tested on: KM12
[29] = tested on: LOX IMVI
[30] = tested on: UACC-257
[31] = tested on: EKVX
[32] = tested on: HCT-15
[33] = tested on: SF-539
[34] = tested on: NCI-H23
[35] = tested on: K562
[36] = tested on: ACHN
[37] = tested on: SF-268
[38] = tested on: SK-OV-3
[39] = tested on: PC-3
[40] = tested on: NCI-H522
[41] = tested on: SR
[42] = tested on: OVCAR-4
[43] = tested on: SF-295
[44] = tested on: OVCAR-8
[45] = tested on: HOP-92
[46] = tested on: NCI-H460
[47] = tested on: HL-60
[48] = tested on: T47D
[49] = tested on: SNB-75
[50] = tested on: DU-145
[51] = tested on: SK-MEL-28
[52] = tested on: HT-29
[53] = tested on: HCT-116
[54] = tested on: MDA-MB-435
[55] = tested on: OVCAR-5
[56] = tested on: NCI/ADR-RES
[57] = tested on: OVCAR-3

## Nc1nc(N)c2ncn(-c3ccccc3)c2n1
[1]
  GI50: > 100 µM (inactive)
[2]
  GI50: > 100 µM (inactive)
[3]
  GI50: 66.2 µM (inactive)
[4]
  GI50: 41.5 µM (inactive)
[5]
  GI50: > 100 µM (inactive)
[6]
  GI50: 71 µM (inactive)
[7]
  GI50: 64.9 µM (inactive)
[8]
  GI50: 43.6 µM (inactive)
[9]
  GI50: 36.9 µM (inactive)
[10]
  GI50: > 100 µM (inactive)
[11]
  GI50: 24.9 µM (inactive)
[12]
  GI50: 93.3 µM (inactive)
[13]
  GI50: > 100 µM (inactive)
[14]
  GI50: > 100 µM (inactive)
[15]
  GI50: 56.1 µM (inactive)
[16]
  GI50: > 100 µM (inactive)
[17]
  GI50: 73.3 µM (inactive)
[18]
  GI50: 54.2 µM (inactive)
[19]
  GI50: > 100 µM (inactive)
[20]
  GI50: 60.4 µM (inactive)
[21]
  GI50: 69.7 µM (inactive)
[22]
  GI50: > 100 µM (inactive)
[23]
  GI50: 44.3 µM (inactive)
[24]
  GI50: 47.2 µM (inactive)
[25]
  GI50: 38.7 µM (inactive)
[26]
  GI50: > 100 µM (inactive)
[27]
  GI50: > 100 µM (inactive)
[28]
  GI50: 26.4 µM (inactive)
[29]
  GI50: > 100 µM (inactive)
[30]
  GI50: > 100 µM (inactive)

## COc1ccc(-c2cc(-c3ccccc3)c(C#N)c(=O)n2C2OC(COC(C)=O)C(OC(C)=O)C(OC(C)=O)C2OC(C)=O)cc1 (stereo unspecified)
[9]
  GI50: 67.6 µM (inactive) and 42.4 µM (inactive)

## C/N=C(\Nc1cccc(C(F)(F)F)c1)SCc1ccc(N=C=S)cc1
[1]
  GI50: 15.8 µM (inactive)
[2]
  GI50: 16.4 µM (inactive)
[3]
  GI50: 16.5 µM (inactive)
[4]
  GI50: 11.8 µM (inactive)
[5]
  GI50: 19.8 µM (inactive)
[6]
  GI50: 14.7 µM (inactive)
[31]
  GI50: 20.2 µM (inactive)
[32]
  GI50: 7.14 µM
[7]
  GI50: 11.2 µM (inactive)
[33]
  GI50: 17.5 µM (inactive)
[8]
  GI50: 18.1 µM (inactive)
[9]
  GI50: 15.1 µM (inactive)
[34]
  GI50: 16.3 µM (inactive)
[35]
  GI50: 20 µM (inactive)
[10]
  GI50: 16.6 µM (inactive)
[36]
  GI50: 15.2 µM (inactive)
[37]
  GI50: 31.2 µM (inactive)
[38]
  GI50: 20.2 µM (inactive)
[39]
  GI50: 15.9 µM (inactive)
[11]
  GI50: 23.4 µM (inactive)
[12]
  GI50: 13.8 µM (inactive)
[40]
  GI50: 10.4 µM (inactive)
[13]
  GI50: 17.5 µM (inactive)
[41]
  GI50: 4.34 µM (inactive)
[14]
  GI50: 14.9 µM (inactive)
[42]
  GI50: 13.3 µM (inactive)
[43]
  GI50: 16 µM (inactive)
[44]
  GI50: 19.6 µM (inactive)
[15]
  GI50: 15.6 µM (inactive)
[45]
  GI50: 14.7 µM (inactive)
[16]
  GI50: 16.3 µM (inactive)
[46]
  GI50: 12.9 µM (inactive)
[17]
  GI50: 12.3 µM (inactive)
[47]
  GI50: 40.6 µM (inactive)
[18]
  GI50: 11.4 µM (inactive)
[19]
  GI50: 14.7 µM (inactive)
[48]
  GI50: 13.8 µM (inactive)
[20]
  GI50: 19.9 µM (inactive)
[49]
  GI50: 14.2 µM (inactive)
[22]
  GI50: 20.2 µM (inactive)
[23]
  GI50: 13.4 µM (inactive)
[50]
  GI50: 17.4 µM (inactive)
[51]
  GI50: 21 µM (inactive)
[24]
  GI50: 16.4 µM (inactive)
[52]
  GI50: 15.6 µM (inactive)
[53]
  GI50: 15.5 µM (inactive)
[25]
  GI50: 11.5 µM (inactive)
[26]
  GI50: 14.8 µM (inactive)
[27]
  GI50: 5.92 µM (inactive)
[54]
  GI50: 13.8 µM (inactive)
[55]
  GI50: 16.5 µM (inactive)
[28]
  GI50: 15.4 µM (inactive)
[29]
  GI50: 4.66 µM (inactive)
[30]
  GI50: 14.3 µM (inactive)
[56]
  GI50: 22.1 µM (inactive)

## O=c1cc(NNc2ccccc2)[nH]c(=O)[nH]1
[1]
  GI50: 16.1 µM (inactive)
[2]
  GI50: 15.8 µM (inactive)
[4]
  GI50: 14.8 µM (inactive)
[5]
  GI50: 19 µM (inactive)
[6]
  GI50: 80.7 µM (inactive)
[31]
  GI50: > 100 µM (inactive)
[32]
  GI50: 16.5 µM
[7]
  GI50: 15.8 µM (inactive)
[33]
  GI50: 71.6 µM (inactive)
[8]
  GI50: > 100 µM (inactive)
[57]
  GI50: 17.2 µM (inactive)
[34]
  GI50: 56.8 µM (inactive)
[35]
  GI50: 24.1 µM (inactive)
[10]
  GI50: 17.9 µM (inactive)
[36]
  GI50: 13.3 µM (inactive)
[37]
  GI50: 25.7 µM (inactive)
[38]
  GI50: > 100 µM (inactive)
[39]
  GI50: 21.9 µM (inactive)
[11]
  GI50: 27.5 µM (inactive)
[12]
  GI50: 25.9 µM (inactive)
[40]
  GI50: 20.5 µM (inactive)
[13]
  GI50: 85.3 µM (inactive)
[41]
  GI50: 28.2 µM (inactive)
[14]
  GI50: 21.1 µM (inactive)
[42]
  GI50: 16 µM (inactive)
[43]
  GI50: 37.9 µM (inactive)
[44]
  GI50: 23.4 µM (inactive)
[15]
  GI50: 19.9 µM (inactive)
[16]
  GI50: 80.9 µM (inactive)
[46]
  GI50: 27.5 µM (inactive)
[47]
  GI50: 18.2 µM (inactive)
[18]
  GI50: 47.3 µM (inactive)
[19]
  GI50: 19.8 µM (inactive)
[48]
  GI50: > 10 µM (inactive)
[20]
  GI50: > 100 µM (inactive)
[21]
  GI50: 12.9 µM (inactive)
[22]
  GI50: > 10 µM (inactive)
[50]
  GI50: > 100 µM (inactive)
[51]
  GI50: 11.2 µM (inactive)
[24]
  GI50: 34.9 µM (inactive)
[52]
  GI50: 22.1 µM (inactive)
[53]
  GI50: 18.1 µM (inactive)
[25]
  GI50: 27.2 µM (inactive)
[26]
  GI50: 20.2 µM (inactive)
[27]
  GI50: 11.1 µM (inactive)
[54]
  GI50: 19 µM (inactive)
[55]
  GI50: > 100 µM (inactive)
[28]
  GI50: 18.8 µM (inactive)
[29]
  GI50: 19.8 µM (inactive)
[30]
  GI50: 16.1 µM (inactive)
[56]
  GI50: 22.8 µM (inactive)

## CC(=O)OC(C)(C)/C(C)=C/C(=O)O[C@H]1C(=O)O[C@@H]2C[C@H]3[C@H](C)C(=O)C(O[C@@H]4O[C@H](CO)[C@@H](O)[C@H](O)[C@H]4O)=C[C@]3(C)[C@H]3[C@@H](O)[C@H](O)[C@@]4(C(=O)O)OC[C@]32[C@@H]14 [Bruceoside-F]
[1]
  GI50: 87.3 µM (inactive)
[16]
  GI50: > 10 µM (inactive)
[51]
  GI50: 79.3 µM (inactive)
[29]
  GI50: 81.3 µM (inactive)
